# From ChEMBL document CHEMBL6127079, “Design and synthesis of spiro[pyrrolidine-3,3'-quinoline]-2,2'-dione derivatives as novel antifungal agents targeting chitin synthase” (Eur J Med Chem, 2024)
# pIC50, pKi: −log10 of the molar value. Active and inactive are the calls of the source. The calls are words filed in the database; no cut-off is given here.
# Tests used:
# Cryptococcus neoformans [1] = assay: Antifungal activity against Cryptococcus neoformans ATCC 32719 assessed as Polyoxin B MIC incubated for 24 hrs in presence of fluconazole by half broth dilution based checkerboard method; type: functional
# Aspergillus fumigatus [2] = assay: Antifungal activity against fluconazole-resistant Aspergillus fumigatus GIMCC 3.19 assessed as inhibition of fungal growth incubated for 24 to 72 hrs; type: functional; details: time 24-72 hrs
# Aspergillus flavus [3] = assay: Synergistic antifungal activity against Aspergillus flavus ATCC 16870 assessed as fractional inhibitory concentration index in presence of Polyoxin B incubated for 24 hrs by half broth dilution based checkerboard method; type: functional
# Candida tropicalis [4] = assay: Non-competitive inhibition of chitin synthase extracted from Candida tropicalis ATCC 750 using UDP-GlcNAc as substrate assessed as decrease in Vm with constant Km at 0 to 0.15 mM by Lineweaver-Burk plot analysis; details: dose 0-0.15 mM
# Cryptococcus neoformans [5] = assay: Synergistic antifungal activity against Cryptococcus neoformans ATCC 32719 assessed as fractional inhibitory concentration index in presence of Polyoxin B incubated for 24 hrs by half broth dilution based checkerboard method; type: functional
# A549 [6] = assay: Cytotoxicity against human A549 cells assessed as reduction in cell viability at 4 microg/ml incubated for 24 hrs by CCK-8 assay relative to control; type: toxicity, cell-based; details: a549, 24 h, at 4 µg/mL
# A549 [7] = assay: Cytotoxicity against human A549 cells assessed as reduction in cell viability at 32 microg/ml incubated for 24 hrs by CCK-8 assay relative to control; type: toxicity, cell-based; details: a549, 24 h, at 32 µg/mL
# Candida albicans [8] = assay: Synergistic antifungal activity against Candida albicans ATCC 76615 assessed as fractional inhibitory concentration index in presence of fluconazole incubated for 24 hrs by half broth dilution based checkerboard method; type: functional
# Cryptococcus neoformans [9] = assay: Antifungal activity against Cryptococcus neoformans ATCC 32719 incubated for 24 hrs by half broth dilution based checkerboard method; type: functional
# Candida tropicalis [10] = assay: Inhibition of chitin synthase extracted from Candida tropicalis ATCC 750 using UDP-GlcNAc as substrate assessed as inhibition rate at 300 ug/ml by TMB based microplate analyzer relative to control; details: dose 300.0 µg/ml
# Aspergillus flavus [11] = assay: Antifungal activity against fluconazole-resistant Aspergillus flavus ATCC 16870 assessed as inhibition of fungal growth incubated for 24 to 72 hrs; type: functional; details: time 24-72 hrs
# Candida albicans [12] = assay: Antifungal activity against Candida albicans ATCC 76615 assessed as fluconazole MIC incubated for 24 hrs in presence of fluconazole by half broth dilution based checkerboard method; type: functional
# Candida albicans [13] = assay: Antifungal activity against Candida albicans ATCC 76615 incubated for 24 hrs by half broth dilution based checkerboard method; type: functional
# Aspergillus flavus [14] = assay: Antifungal activity against Aspergillus flavus ATCC 16870 incubated for 24 hrs by half broth dilution based checkerboard method; type: functional
# Aspergillus fumigatus [15] = assay: Antifungal activity against Aspergillus fumigatus GIMCC 3.19 assessed as inhibition of growth incubated for 24 hrs by two-fold serial dilution method; type: functional
# Aspergillus flavus [16] = assay: Synergistic antifungal activity against Aspergillus flavus ATCC 16870 assessed as fractional inhibitory concentration index in presence of fluconazole incubated for 24 hrs by half broth dilution based checkerboard method; type: functional
# [17] = Non-competitive inhibition of chitin synthase extracted from Candida tropicalis ATCC 750 using UDP-GlcNAc as substrate assessed as inhibition constant by Lineweaver-Burk plot analysis
# Candida albicans [18] = assay: Antifungal activity against drug-resistant Candida albicans ATCC 76615 assessed as inhibition of cell wall synthesis in presence of sorbitol incubated for 24 hrs; type: functional
# Aspergillus fumigatus [19] = assay: Antifungal activity against Aspergillus fumigatus GIMCC 3.19 incubated for 24 hrs by half broth dilution based checkerboard method; type: functional
# Candida albicans [20] = assay: Antifungal activity against micafungin-resistant Candida albicans ATCC 76615 assessed as inhibition of fungal growth incubated for 24 to 72 hrs; type: functional; details: time 24-72 hrs
# Aspergillus fumigatus [21] = assay: Antifungal activity against Aspergillus fumigatus GIMCC 3.19 assessed as fluconazole MIC incubated for 24 hrs in presence of fluconazole by half broth dilution based checkerboard method; type: functional
# Aspergillus fumigatus [22] = assay: Synergistic antifungal activity against Aspergillus fumigatus GIMCC 3.19 assessed as fractional inhibitory concentration index in presence of fluconazole incubated for 24 hrs by half broth dilution based checkerboard method; type: functional
# Cryptococcus neoformans [23] = assay: Antifungal activity against fluconazole-resistant Cryptococcus neoformans ATCC 32719 assessed as inhibition of fungal growth incubated for 24 to 72 hrs; type: functional; details: time 24-72 hrs
# Aspergillus flavus [24] = assay: Antifungal activity against Aspergillus flavus ATCC 16870 assessed as fluconazole MIC incubated for 24 hrs in presence of fluconazole by half broth dilution based checkerboard method; type: functional
# Aspergillus flavus [25] = assay: Antifungal activity against drug-resistant Aspergillus flavus ATCC 16870 assessed as inhibition of cell wall synthesis in presence of sorbitol incubated for 24 hrs; type: functional
# A549 [26] = assay: Cytotoxicity against human A549 cells assessed as reduction in cell viability at 16 microg/ml incubated for 24 hrs by CCK-8 assay relative to control; type: toxicity, cell-based; details: a549, 24 h, at 16 µg/mL
# Aspergillus fumigatus [27] = assay: Antifungal activity against drug-resistant Aspergillus fumigatus GIMCC 3.19 assessed as inhibition of cell wall synthesis in presence of sorbitol incubated for 24 hrs; type: functional
# Aspergillus flavus [28] = assay: Antifungal activity against Aspergillus flavus ATCC 16870 assessed as inhibition of growth incubated for 24 hrs by two-fold serial dilution method; type: functional
# [29] = Inhibition of chitin synthase extracted from Candida tropicalis ATCC 750 using UDP-GlcNAc as substrate assessed as inhibition rate by TMB based microplate analyzer relative to control
# Aspergillus flavus [30] = assay: Antifungal activity against Aspergillus flavus ATCC 16870 assessed as Polyoxin B MIC incubated for 24 hrs in presence of fluconazole by half broth dilution based checkerboard method; type: functional
# Cryptococcus neoformans [31] = assay: Synergistic antifungal activity against Cryptococcus neoformans ATCC 32719 assessed as fractional inhibitory concentration index in presence of fluconazole incubated for 24 hrs by half broth dilution based checkerboard method; type: functional
# Candida albicans [32] = assay: Antifungal activity against fluconazole-resistant Candida albicans ATCC 76615 assessed as inhibition of fungal growth incubated for 24 to 72 hrs; type: functional; details: time 24-72 hrs
# Aspergillus fumigatus [33] = assay: Antifungal activity against Aspergillus fumigatus GIMCC 3.19 assessed as Polyoxin B MIC incubated for 24 hrs in presence of fluconazole by half broth dilution based checkerboard method; type: functional
# Candida albicans [34] = assay: Synergistic antifungal activity against Candida albicans ATCC 76615 assessed as fractional inhibitory concentration index in presence of Polyoxin B incubated for 24 hrs by half broth dilution based checkerboard method; type: functional
# A549 [35] = assay: Cytotoxicity against human A549 cells assessed as reduction in cell viability at 128 microg/ml incubated for 24 hrs by CCK-8 assay relative to control; type: toxicity, cell-based; details: a549, 24 h, at 128 µg/mL
# Candida albicans [36] = assay: Antifungal activity against Candida albicans ATCC 76615 assessed as inhibition of growth incubated for 24 hrs by two-fold serial dilution method; type: functional
# A549 [37] = assay: Cytotoxicity against human A549 cells assessed as reduction in cell viability at 64 microg/ml incubated for 24 hrs by CCK-8 assay relative to control; type: toxicity, cell-based; details: a549, 24 h, at 64 µg/mL
# A549 [38] = assay: Cytotoxicity against human A549 cells assessed as reduction in cell viability at 8 microg/ml incubated for 24 hrs by CCK-8 assay relative to control; type: toxicity, cell-based; details: a549, 24 h, at 8 µg/mL
# Cryptococcus neoformans [39] = assay: Antifungal activity against Cryptococcus neoformans ATCC 32719 assessed as inhibition of growth incubated for 24 hrs by two-fold serial dilution method; type: functional
# Candida albicans [40] = assay: Antifungal activity against Candida albicans ATCC 76615 assessed as Polyoxin B MIC incubated for 24 hrs in presence of fluconazole by half broth dilution based checkerboard method; type: functional
# Cryptococcus neoformans [41] = assay: Antifungal activity against drug-resistant Cryptococcus neoformans ATCC 32719 assessed as inhibition of cell wall synthesis in presence of sorbitol incubated for 24 hrs; type: functional
# Cryptococcus neoformans [42] = assay: Antifungal activity against Cryptococcus neoformans ATCC 32719 assessed as fluconazole MIC incubated for 24 hrs in presence of fluconazole by half broth dilution based checkerboard method; type: functional
# Aspergillus fumigatus [43] = assay: Synergistic antifungal activity against Aspergillus fumigatus GIMCC 3.19 assessed as fractional inhibitory concentration index in presence of Polyoxin B incubated for 24 hrs by half broth dilution based checkerboard method; type: functional
smiles,measurement,setting,value
Cc1cc([N+](=O)[O-])ccc1NC(=O)C1CCN(CC(=O)Nc2ccc3c(c2)NC(=O)C2(CCNC2=O)C3)CC1 (racemic),MIC,Cryptococcus neoformans [1],8 µg/mL
same,MIC,Aspergillus fumigatus [2],32 µg/mL
same,fractional inhibitory concentration index (FICI),Aspergillus flavus [3],0.75
same,inhibition,Candida tropicalis [4],Active
same,fractional inhibitory concentration index (FICI),Cryptococcus neoformans [5],1.5
same,Activity,A549 [6],97.1%
same,Activity,A549 [7],91.9%
same,fractional inhibitory concentration index (FICI),Candida albicans [8],1
same,MIC,Cryptococcus neoformans [9],8 µg/mL
same,inhibition,Candida tropicalis [10],85.2%
same,MIC,Aspergillus flavus [11],32 µg/mL
same,MIC,Candida albicans [12],1.25 µg/mL
same,MIC,Candida albicans [13],8 µg/mL
same,MIC,Aspergillus flavus [14],16 µg/mL
same,MIC,Aspergillus fumigatus [15],16 µg/mL
same,fractional inhibitory concentration index (FICI),Aspergillus flavus [16],1.5
same,pKi,[17],3.97
same,MIC,Candida albicans [18],256 µg/mL
same,MIC,Aspergillus fumigatus [19],16 µg/mL
same,MIC,Candida albicans [20],64 µg/mL
same,MIC,Aspergillus fumigatus [21],0.75 µg/mL
same,fractional inhibitory concentration index (FICI),Aspergillus fumigatus [22],2
same,MIC,Cryptococcus neoformans [23],64 µg/mL
same,MIC,Aspergillus flavus [24],0.625 µg/mL
same,MIC,Aspergillus flavus [25],256 µg/mL
same,Activity,A549 [26],92.2%
same,MIC,Aspergillus fumigatus [27],128 µg/mL
same,MIC,Aspergillus flavus [28],16 µg/mL
same,pIC50,[29],4.03
same,MIC,Aspergillus flavus [30],16 µg/mL
same,fractional inhibitory concentration index (FICI),Cryptococcus neoformans [31],0.75
same,MIC,Candida albicans [32],64 µg/mL
same,MIC,Aspergillus fumigatus [33],16 µg/mL
same,fractional inhibitory concentration index (FICI),Candida albicans [34],0.625
same,Activity,A549 [35],73.5%
same,MIC,Candida albicans [36],8 µg/mL
same,Activity,A549 [37],87.6%
same,Activity,A549 [38],93.8%
same,MIC,Cryptococcus neoformans [39],8 µg/mL
same,MIC,Candida albicans [40],8 µg/mL
same,MIC,Cryptococcus neoformans [41],512 µg/mL
same,MIC,Cryptococcus neoformans [42],1.5 µg/mL
same,fractional inhibitory concentration index (FICI),Aspergillus fumigatus [43],2
NC(=O)OC[C@H](O)[C@@H](O)[C@H](N)C(=O)N[C@H](C(=O)O)[C@H]1O[C@@H](n2cc(CO)c(=O)[nH]c2=O)[C@H](O)[C@@H]1O [POLYOXIN B],Activity,A549 [6],99.2%
same,Activity,A549 [7],92.7%
same,MIC,Cryptococcus neoformans [9],16 µg/mL
same,inhibition,Candida tropicalis [10],86.4%
same,MIC,Candida albicans [13],16 µg/mL
same,MIC,Aspergillus flavus [14],16 µg/mL
same,MIC,Aspergillus fumigatus [15],8 µg/mL
same,MIC,Aspergillus fumigatus [19],8 µg/mL
same,MIC,Aspergillus flavus [25],512 µg/mL
same,Activity,A549 [26],97.9%
same,MIC,Aspergillus fumigatus [27],128 µg/mL
same,MIC,Aspergillus flavus [28],16 µg/mL
same,pIC50,[29],4.09
same,Activity,A549 [35],84.3%
same,MIC,Candida albicans [36],16 µg/mL
same,Activity,A549 [37],91.2%
same,Activity,A549 [38],98.8%
same,MIC,Cryptococcus neoformans [39],16 µg/mL
same,MIC,Cryptococcus neoformans [41],256 µg/mL
